Test results from PubChem BioAssay (NCI).
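Dose response: 5 concentrations. Exposure: 48 h. Format: 96-well plates. Endpoint: linear interpolation; highest concentration if not reached. Definition used: TGI = concentration required for complete inhibition of growth.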

What was measured:
Experiment in all cases: NCI-60 cell line screen, 48 h
786-0 renal = test system: 786-0 renal
A549 NSCLC = test system: A549 NSCLC
ACHN renal = test system: ACHN renal
CAKI-1 renal = test system: CAKI-1 renal
CCRF-CEM leukemia = test system: CCRF-CEM leukemia
COLO 205 colon = test system: COLO 205 colon
DMS 114 small cell lung = test system: DMS 114 small cell lung
DMS 273 small cell lung = test system: DMS 273 small cell lung
HCC-2998 colon = test system: HCC-2998 colon
HCT-116 colon = test system: HCT-116 colon
HCT-15 colon = test system: HCT-15 colon
HL-60(TB) leukemia = test system: HL-60(TB) leukemia
HOP-18 NSCLC = test system: HOP-18 NSCLC
HOP-62 NSCLC = test system: HOP-62 NSCLC
HOP-92 NSCLC = test system: HOP-92 NSCLC
HT29 colon = test system: HT29 colon
K-562 leukemia = test system: K-562 leukemia
KM12 colon = test system: KM12 colon
KM20L2 colon = test system: KM20L2 colon
LXFL 529 NSCLC = test system: LXFL 529 NSCLC
M14 melanoma = test system: M14 melanoma
M19-MEL melanoma = test system: M19-MEL melanoma
MALME-3M melanoma = test system: MALME-3M melanoma
MOLT-4 leukemia = test system: MOLT-4 leukemia
NCI-H226 lung = test system: NCI-H226 lung
NCI-H460 lung = test system: NCI-H460 lung
NCI-H522 lung = test system: NCI-H522 lung
OVCAR-3 ovarian = test system: OVCAR-3 ovarian
OVCAR-4 ovarian = test system: OVCAR-4 ovarian
OVCAR-8 ovarian = test system: OVCAR-8 ovarian
RPMI-8226 leukemia = test system: RPMI-8226 leukemia
SF-268 CNS = test system: SF-268 CNS
SF-295 CNS = test system: SF-295 CNS
SF-539 CNS = test system: SF-539 CNS
SK-MEL-2 melanoma = test system: SK-MEL-2 melanoma
SK-MEL-28 melanoma = test system: SK-MEL-28 melanoma
SK-MEL-5 melanoma = test system: SK-MEL-5 melanoma
SN12C renal = test system: SN12C renal
SNB-19 CNS = test system: SNB-19 CNS
SNB-75 CNS = test system: SNB-75 CNS
SR leukemia = test system: SR leukemia
SW-620 colon = test system: SW-620 colon
TK-10 renal = test system: TK-10 renal
U251 CNS = test system: U251 CNS
UACC-257 melanoma = test system: UACC-257 melanoma
UACC-62 melanoma = test system: UACC-62 melanoma
UO-31 renal = test system: UO-31 renal
DLD-1 colon = test system: DLD-1 colon
IGROV1 ovarian = test system: IGROV1 ovarian
NCI-H23 lung = test system: NCI-H23 lung
SK-OV-3 ovarian = test system: SK-OV-3 ovarian

SMILES: C=CCCCCC1CCC2CCC(CCCCC=C)N12 (configuration not stated)
- TGI (786-0 renal): 26.9 µM
- TGI (A549 NSCLC): 30 µM
- TGI (ACHN renal): 28.5 µM
- TGI (CAKI-1 renal): 84.8 µM
- TGI (CCRF-CEM leukemia): 37.7 µM
- TGI (COLO 205 colon): 32.5 µM
- TGI (DMS 114 small cell lung): 31.3 µM
- TGI (DMS 273 small cell lung): 37.5 µM
- TGI (HCC-2998 colon): 30 µM
- TGI (HCT-116 colon): 30.2 µM
- TGI (HCT-15 colon): 19.4 µM
- TGI (HL-60(TB) leukemia): 36.5 µM
- TGI (HOP-18 NSCLC): 60.9 µM
- TGI (HOP-62 NSCLC): 33 µM
- TGI (HOP-92 NSCLC): 22.8 µM
- TGI (HT29 colon): 25.5 µM
- TGI (K-562 leukemia): 42.1 µM
- TGI (KM12 colon): 29.6 µM
- TGI (KM20L2 colon): 25.7 µM
- TGI (LXFL 529 NSCLC): 26.9 µM
- TGI (M14 melanoma): 31.3 µM
- TGI (M19-MEL melanoma): 37.3 µM
- TGI (MALME-3M melanoma): 31.8 µM
- TGI (MOLT-4 leukemia): 36.3 µM
- TGI (NCI-H226 lung): 34.1 µM
- TGI (NCI-H460 lung): 26.2 µM
- TGI (NCI-H522 lung): 28.3 µM
- TGI (OVCAR-3 ovarian): 30.2 µM
- TGI (OVCAR-4 ovarian): 26.3 µM
- TGI (OVCAR-8 ovarian): 33.1 µM
- TGI (RPMI-8226 leukemia): 41 µM
- TGI (SF-268 CNS): 29.8 µM
- TGI (SF-295 CNS): 26.4 µM
- TGI (SF-539 CNS): 30.6 µM
- TGI (SK-MEL-2 melanoma): 22.9 µM
- TGI (SK-MEL-28 melanoma): 32.2 µM
- TGI (SK-MEL-5 melanoma): 26.9 µM
- TGI (SN12C renal): 29.9 µM
- TGI (SNB-19 CNS): 35.3 µM
- TGI (SNB-75 CNS): 43.1 µM
- TGI (SR leukemia): 33.4 µM
- TGI (SW-620 colon): 32.9 µM
- TGI (TK-10 renal): 34.8 µM
- TGI (U251 CNS): 34.6 µM
- TGI (UACC-257 melanoma): 29.3 µM
- TGI (UACC-62 melanoma): 30.6 µM
- TGI (UO-31 renal): 27.4 µM

SMILES: Nc1c(C(=O)N/N=C/c2ccccc2)sc(=S)n1-c1ccccc1
- TGI (A549 NSCLC): > 100 µM
- TGI (ACHN renal): > 100 µM
- TGI (CCRF-CEM leukemia): > 100 µM
- TGI (COLO 205 colon): > 100 µM
- TGI (DLD-1 colon): > 100 µM
- TGI (HCC-2998 colon): > 100 µM
- TGI (HCT-116 colon): > 100 µM
- TGI (HL-60(TB) leukemia): > 100 µM
- TGI (HOP-18 NSCLC): > 100 µM
- TGI (HOP-62 NSCLC): > 100 µM
- TGI (HOP-92 NSCLC): > 100 µM
- TGI (HT29 colon): > 100 µM
- TGI (IGROV1 ovarian): > 100 µM
- TGI (K-562 leukemia): > 100 µM
- TGI (KM12 colon): > 100 µM
- TGI (LXFL 529 NSCLC): > 100 µM
- TGI (M19-MEL melanoma): > 100 µM
- TGI (MOLT-4 leukemia): > 100 µM
- TGI (NCI-H226 lung): > 100 µM
- TGI (NCI-H23 lung): > 100 µM
- TGI (NCI-H460 lung): > 100 µM
- TGI (NCI-H522 lung): > 100 µM
- TGI (OVCAR-3 ovarian): > 100 µM
- TGI (OVCAR-8 ovarian): > 100 µM
- TGI (RPMI-8226 leukemia): > 100 µM
- TGI (SF-268 CNS): > 100 µM
- TGI (SF-295 CNS): > 100 µM
- TGI (SF-539 CNS): > 100 µM
- TGI (SK-MEL-28 melanoma): > 100 µM
- TGI (SK-MEL-5 melanoma): > 100 µM
- TGI (SK-OV-3 ovarian): > 100 µM
- TGI (SNB-19 CNS): > 100 µM
- TGI (SNB-75 CNS): > 100 µM
- TGI (SR leukemia): > 100 µM
- TGI (SW-620 colon): > 100 µM
- TGI (TK-10 renal): > 100 µM
- TGI (U251 CNS): > 100 µM
- TGI (UACC-257 melanoma): > 100 µM
- TGI (UACC-62 melanoma): > 100 µM
- TGI (UO-31 renal): > 100 µM
